Patent US20230085307A1, “PYRIDAZINONE COMPOUND AND HERBICIDE” (NISSAN CHEMICAL CORPORATION, priority 2019, published 2023)

How the values were obtained:
late watergrass = assay: Test Example 1: herbicidal activity, application before weed generation under submerged conditions (Table 16, symbol A); assay type: in vivo, late watergrass (Echinochloa oryzicola); conditions: amount of applied herbicide 320 g/ha
Procedure, shortened: (§1)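 Submerged Wagner pots (alluvial soil, 4 cm water) sown with weed seeds and planted with 2.5-leaf rice seedlings; emulsifiable concentrate diluted in water applied to water surface on sowing day. Held in greenhouse at 25-30 °C; injury scored 0-5 by herbicidal rate after three weeks.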

Japanese bulrush = assay: Test Example 1: herbicidal activity, application before weed generation under submerged conditions (Table 16, symbol B); assay type: in vivo, Japanese bulrush (Schoenoplectus juncoides); conditions: amount of applied herbicide 320 g/ha
Procedure, shortened: as §1

oval-leafed pondweed = assay: Test Example 1: herbicidal activity, application before weed generation under submerged conditions (Table 16, symbol C); assay type: in vivo, oval-leafed pondweed (Monochoria vaginalis); conditions: amount of applied herbicide 320 g/ha
Procedure, shortened: as §1

barnyard grass [1] = assay: Test Example 3: herbicidal effect by foliage application, Wagner pot (Table 18, symbol H); assay type: in vivo, barnyard grass (Echinochloa crus-galli); conditions: amount of applied herbicide 320 g/ha
Procedure, shortened: (§2)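 Plants were sown in alluvial soil held under 0.1–0.5 cm standing water and grown 14 days in a greenhouse at 25–30 °C. An emulsifiable formulation, water-diluted to the set dose, was then sprayed onto the foliage, and effects were scored three weeks later using previously defined criteria.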

Chinese sprangletop = assay: Test Example 3: herbicidal effect by foliage application, Wagner pot (Table 18, symbol D); assay type: in vivo, chinese sprangletop (Leptochloa chinensis); conditions: amount of applied herbicide 320 g/ha
Procedure, shortened: as §2

rice flat sedge = assay: Test Example 3: herbicidal effect by foliage application, Wagner pot (Table 18, symbol E); assay type: in vivo, rice flat sedge (Cyperus iria); conditions: amount of applied herbicide 320 g/ha
Procedure, shortened: as §2

southern crabgrass [2] = assay: Test Example 4: herbicidal effect by soil treatment (Table 19, symbol F); assay type: in vivo, southern crabgrass (Digitaria ciliaris); conditions: amount of applied herbicide 320 g/ha
Procedure, shortened: (§3)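 Herbicidal effect was rated 3 weeks after treatment, using the scoring criteria of an earlier test. The compound, formulated as an emulsion and diluted in water to a set herbicide amount, had been sprayed uniformly on soil over freshly sown seeds. Growth took place in a greenhouse at 25° C. to 30° C.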

green foxtail [3] = assay: Test Example 4: herbicidal effect by soil treatment (Table 19, symbol G); assay type: in vivo, green foxtail (Setaria viridis); conditions: amount of applied herbicide 320 g/ha
Procedure, shortened: as §3

barnyard grass [4] = assay: Test Example 4: herbicidal effect by soil treatment (Table 19, symbol H); assay type: in vivo, barnyard grass (Echinochloa crus-galli); conditions: amount of applied herbicide 320 g/ha
Procedure, shortened: as §3

wild oat [5] = assay: Test Example 4: herbicidal effect by soil treatment (Table 19, symbol I); assay type: in vivo, wild oat (Avena fatua); conditions: amount of applied herbicide 320 g/ha
Procedure, shortened: as §3

blackgrass [6] = assay: Test Example 4: herbicidal effect by soil treatment (Table 19, symbol J); assay type: in vivo, blackgrass (Alopecurus myosuroides); conditions: amount of applied herbicide 320 g/ha
Procedure, shortened: as §3

Italian ryegrass [7] = assay: Test Example 4: herbicidal effect by soil treatment (Table 19, symbol K); assay type: in vivo, Italian ryegrass (Lolium multiflorum); conditions: amount of applied herbicide 320 g/ha
Procedure, shortened: as §3

windgrass [8] = assay: Test Example 4: herbicidal effect by soil treatment (Table 19, symbol L); assay type: in vivo, windgrass (Apera spica-venti); conditions: amount of applied herbicide 320 g/ha
Procedure, shortened: as §3

velvetleaf [9] = assay: Test Example 4: herbicidal effect by soil treatment (Table 19, symbol M); assay type: in vivo, velvetleaf (Abutilon theophrasti); conditions: amount of applied herbicide 320 g/ha
Procedure, shortened: as §3

redroot pigweed [10] = assay: Test Example 4: herbicidal effect by soil treatment (Table 19, symbol N); assay type: in vivo, redroot pigweed (Amaranthus retroflexus); conditions: amount of applied herbicide 320 g/ha
Procedure, shortened: as §3

lambsquarters [11] = assay: Test Example 4: herbicidal effect by soil treatment (Table 19, symbol O); assay type: in vivo, lambsquarters (Chenopodium album); conditions: amount of applied herbicide 320 g/ha
Procedure, shortened: as §3

false cleavers = assay: Test Example 4: herbicidal effect by soil treatment (Table 19, symbol Q); assay type: in vivo, false cleavers (Galium spurium); conditions: amount of applied herbicide 320 g/ha
Procedure, shortened: as §3

persian speedwell [12] = assay: Test Example 4: herbicidal effect by soil treatment (Table 19, symbol R); assay type: in vivo, Persian speedwell (Veronica persica); conditions: amount of applied herbicide 320 g/ha
Procedure, shortened: as §3

southern crabgrass [13] = assay: Test Example 5: herbicidal effect by foliage application, plastic box (Table 20, symbol F); assay type: in vivo, southern crabgrass (Digitaria ciliaris); conditions: foliage application, 320 g/ha, three weeks after application
Procedure, shortened: (§4)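 Foliar spray test: emulsion formulation diluted in water to a set application rate, sprayed onto 14-day-old plants raised in diluvial soil at 25° C to 30° C under glass. Both herbicidal effect and crop effect rated visually three weeks later.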

green foxtail [14] = assay: Test Example 5: herbicidal effect by foliage application, plastic box (Table 20, symbol G); assay type: in vivo, green foxtail (Setaria viridis); conditions: foliage application, 320 g/ha, three weeks after application
Procedure, shortened: as §4

barnyard grass [15] = assay: Test Example 5: herbicidal effect by foliage application, plastic box (Table 20, symbol H); assay type: in vivo, barnyard grass (Echinochloa crus-galli); conditions: foliage application, 320 g/ha, three weeks after application
Procedure, shortened: as §4

wild oat [16] = assay: Test Example 5: herbicidal effect by foliage application, plastic box (Table 20, symbol I); assay type: in vivo, wild oat (Avena fatua); conditions: foliage application, 320 g/ha, three weeks after application
Procedure, shortened: as §4

blackgrass [17] = assay: Test Example 5: herbicidal effect by foliage application, plastic box (Table 20, symbol J); assay type: in vivo, blackgrass (Alopecurus myosuroides); conditions: foliage application, 320 g/ha, three weeks after application
Procedure, shortened: as §4

Italian ryegrass [18] = assay: Test Example 5: herbicidal effect by foliage application, plastic box (Table 20, symbol K); assay type: in vivo, Italian ryegrass (Lolium multiflorum); conditions: foliage application, 320 g/ha, three weeks after application
Procedure, shortened: as §4

windgrass [19] = assay: Test Example 5: herbicidal effect by foliage application, plastic box (Table 20, symbol L); assay type: in vivo, windgrass (Apera spica-venti); conditions: foliage application, 320 g/ha, three weeks after application
Procedure, shortened: as §4

velvetleaf [20] = assay: Test Example 5: herbicidal effect by foliage application, plastic box (Table 20, symbol M); assay type: in vivo, velvetleaf (Abutilon theophrasti); conditions: foliage application, 320 g/ha, three weeks after application
Procedure, shortened: as §4

redroot pigweed [21] = assay: Test Example 5: herbicidal effect by foliage application, plastic box (Table 20, symbol N); assay type: in vivo, redroot pigweed (Amaranthus retroflexus); conditions: foliage application, 320 g/ha, three weeks after application
Procedure, shortened: as §4

lambsquarters [22] = assay: Test Example 5: herbicidal effect by foliage application, plastic box (Table 20, symbol O); assay type: in vivo, lambsquarters (Chenopodium album); conditions: foliage application, 320 g/ha, three weeks after application
Procedure, shortened: as §4

chickweed [23] = assay: Test Example 5: herbicidal effect by foliage application, plastic box (Table 20, symbol P); assay type: in vivo, common chickweed (Stellaria media); conditions: foliage application, 320 g/ha, three weeks after application
Procedure, shortened: as §4

persian speedwell [24] = assay: Test Example 5: herbicidal effect by foliage application, plastic box (Table 20, symbol R); assay type: in vivo, Persian speedwell (Veronica persica); conditions: foliage application, 320 g/ha, three weeks after application
Procedure, shortened: as §4

chickweed [25] = assay: Test Example 4: herbicidal effect by soil treatment (Table 19, symbol P); assay type: in vivo, common chickweed (Stellaria media); conditions: amount of applied herbicide 320 g/ha
Procedure, shortened: as §3

Compound: COc1ccccc1-c1sc2ccc(F)cc2c1-c1c(O)c(C)nn(CC#N)c1=O [2-431]
- Herbicidal effect, A: late watergrass (late watergrass): 2 (Herbicidal rate of 20% or more and less than 40%)
- Herbicidal effect, B: Japanese bulrush (Japanese bulrush): 0 (Herbicidal rate of 5% or less (almost no effect))
- Herbicidal effect, C: oval-leafed pondweed (oval-leafed pondweed): 0 (Herbicidal rate of 5% or less (almost no effect))
- herbicidal effect on H: barnyard grass (barnyard grass [1]): 5 (Herbicidal rate of 90% or more (almost completely withered))
- herbicidal effect on D: Chinese sprangletop (Chinese sprangletop): 3 (Herbicidal rate of 40% or more and less than 70%)
- herbicidal effect on E: rice flat sedge (rice flat sedge): 5 (Herbicidal rate of 90% or more (almost completely withered))
- herbicidal effect, F: southern crabgrass (southern crabgrass [2]): 0 (Herbicidal rate of 5% or less (almost no effect))
- herbicidal effect, G: green foxtail (green foxtail [3]): 0 (Herbicidal rate of 5% or less (almost no effect))
- herbicidal effect, H: barnyard grass (barnyard grass [4]): 0 (Herbicidal rate of 5% or less (almost no effect))
- herbicidal effect, I: wild oat (wild oat [5]): 0 (Herbicidal rate of 5% or less (almost no effect))
- herbicidal effect, J: blackgrass (blackgrass [6]): 0 (Herbicidal rate of 5% or less (almost no effect))
- herbicidal effect, K: Italian ryegrass (Italian ryegrass [7]): 0 (Herbicidal rate of 5% or less (almost no effect))
- herbicidal effect, L: windgrass (windgrass [8]): 0 (Herbicidal rate of 5% or less (almost no effect))
- herbicidal effect, M: velvetleaf (velvetleaf [9]): 1 (Herbicidal rate of 5% or more and less than 20%)
- herbicidal effect, N: redroot pigweed (redroot pigweed [10]): 5 (Herbicidal rate of 90% or more (almost completely withered))
- herbicidal effect, O: lambsquarters (lambsquarters [11]): 1 (Herbicidal rate of 5% or more and less than 20%)
- herbicidal effect, Q: false cleavers (false cleavers): 0 (Herbicidal rate of 5% or less (almost no effect))
- herbicidal effect, R: persian speedwell (persian speedwell [12]): 0 (Herbicidal rate of 5% or less (almost no effect))
- F: southern crabgrass, herbicidal effect grade (southern crabgrass [13]): 0 (Herbicidal rate of 5% or less (almost no effect))
- G: green foxtail, herbicidal effect grade (green foxtail [14]): 0 (Herbicidal rate of 5% or less (almost no effect))
- H: barnyard grass, herbicidal effect grade (barnyard grass [15]): 0 (Herbicidal rate of 5% or less (almost no effect))
- I: wild oat, herbicidal effect grade (wild oat [16]): 0 (Herbicidal rate of 5% or less (almost no effect))
- J: blackgrass, herbicidal effect grade (blackgrass [17]): 0 (Herbicidal rate of 5% or less (almost no effect))
- K: Italian ryegrass, herbicidal effect grade (Italian ryegrass [18]): 0 (Herbicidal rate of 5% or less (almost no effect))
- L: windgrass, herbicidal effect grade (windgrass [19]): 0 (Herbicidal rate of 5% or less (almost no effect))
- M: velvetleaf, herbicidal effect grade (velvetleaf [20]): 2 (Herbicidal rate of 20% or more and less than 40%)
- N: redroot pigweed, herbicidal effect grade (redroot pigweed [21]): 3 (Herbicidal rate of 40% or more and less than 70%)
- O: lambsquarters, herbicidal effect grade (lambsquarters [22]): 1 (Herbicidal rate of 5% or more and less than 20%)
- P: chickweed, herbicidal effect grade (chickweed [23]): 5 (Herbicidal rate of 90% or more (almost completely withered))
- R: persian speedwell, herbicidal effect grade (persian speedwell [24]): 3 (Herbicidal rate of 40% or more and less than 70%)

Compound: Cc1nn(C)c(=O)c(-c2c(-c3ccc(OCC(F)(F)F)cc3)oc3ccc(F)cc23)c1O [9-035]
- Herbicidal effect, A: late watergrass (late watergrass): 2 (Herbicidal rate of 20% or more and less than 40%)
- Herbicidal effect, B: Japanese bulrush (Japanese bulrush): 0 (Herbicidal rate of 5% or less (almost no effect))
- Herbicidal effect, C: oval-leafed pondweed (oval-leafed pondweed): 0 (Herbicidal rate of 5% or less (almost no effect))
- Herbicidal effect on H (barnyard grass), foliage application (barnyard grass [1]): 5 (Herbicidal rate of 90% or more (almost completely withered))
- Herbicidal effect on D (Chinese sprangletop), foliage application (Chinese sprangletop): 3 (Herbicidal rate of 40% or more and less than 70%)
- Herbicidal effect on E (rice flat sedge), foliage application (rice flat sedge): 5 (Herbicidal rate of 90% or more (almost completely withered))
- F: southern crabgrass, herbicidal effect grade (southern crabgrass [2]): 5 (Herbicidal rate of 90% or more (almost completely withered))
- G: green foxtail, herbicidal effect grade (green foxtail [3]): 5 (Herbicidal rate of 90% or more (almost completely withered))
- H: barnyard grass, herbicidal effect grade (barnyard grass [4]): 5 (Herbicidal rate of 90% or more (almost completely withered))
- I: wild oat, herbicidal effect grade (wild oat [5]): 2 (Herbicidal rate of 20% or more and less than 40%)
- J: blackgrass, herbicidal effect grade (blackgrass [6]): 5 (Herbicidal rate of 90% or more (almost completely withered))
- K: Italian ryegrass, herbicidal effect grade (Italian ryegrass [7]): 5 (Herbicidal rate of 90% or more (almost completely withered))
- L: windgrass, herbicidal effect grade (windgrass [8]): 5 (Herbicidal rate of 90% or more (almost completely withered))
- M: velvetleaf, herbicidal effect grade (velvetleaf [9]): 4 (Herbicidal rate of 70% or more and less than 90%)
- N: redroot pigweed, herbicidal effect grade (redroot pigweed [10]): 5 (Herbicidal rate of 90% or more (almost completely withered))
- O: lambsquarters, herbicidal effect grade (lambsquarters [11]): 5 (Herbicidal rate of 90% or more (almost completely withered))
- P: chickweed, herbicidal effect grade (chickweed [25]): 5 (Herbicidal rate of 90% or more (almost completely withered))
- Q: false cleavers, herbicidal effect grade (false cleavers): 3 (Herbicidal rate of 40% or more and less than 70%)
- R: persian speedwell, herbicidal effect grade (persian speedwell [12]): 5 (Herbicidal rate of 90% or more (almost completely withered))
- herbicidal effect on southern crabgrass (F) (southern crabgrass [13]): 5 (Herbicidal rate of 90% or more (almost completely withered))
- herbicidal effect on green foxtail (G) (green foxtail [14]): 5 (Herbicidal rate of 90% or more (almost completely withered))
- herbicidal effect on barnyard grass (H) (barnyard grass [15]): 5 (Herbicidal rate of 90% or more (almost completely withered))
- herbicidal effect on wild oat (I) (wild oat [16]): 5 (Herbicidal rate of 90% or more (almost completely withered))
- herbicidal effect on blackgrass (J) (blackgrass [17]): 5 (Herbicidal rate of 90% or more (almost completely withered))
- herbicidal effect on Italian ryegrass (K) (Italian ryegrass [18]): 5 (Herbicidal rate of 90% or more (almost completely withered))
- herbicidal effect on windgrass (L) (windgrass [19]): 5 (Herbicidal rate of 90% or more (almost completely withered))
- herbicidal effect on velvetleaf (M) (velvetleaf [20]): 5 (Herbicidal rate of 90% or more (almost completely withered))
- herbicidal effect on lambsquarters (O) (lambsquarters [22]): 4 (Herbicidal rate of 70% or more and less than 90%)
- herbicidal effect on persian speedwell (R) (persian speedwell [24]): 5 (Herbicidal rate of 90% or more (almost completely withered))
